Test results from US20250206763A1, “ENPP1 INHIBITOR” (SHANGHAI QILU PHARMACEUTICAL RESEARCH AND DEVELOPMENT …, priority 2022, published 2025).

What was measured:
MDA-MB-231 cells = assay: Cell Activity Test 1: pNP-AMP hydrolysis on MDA-MB-231 cells, absorbance at 405; format: cell-based; conditions: Homo sapiens, 1 hour pre-incubation, 0.25 mM pNP-AMP, 5 hours of reaction, read-out: MDA-MB-231 cell biochemical IC50
Protocol: MDA-MB-231 cells were digested and suspended, the cell density was adjusted to 4.5×10^5 cells per milliliter, and the cells were seeded in 384 microtiter plates at 50 microliters per well. The cells were incubated in an incubator at 37° C. with […] for 24 h. After 24 h, the cell plates were taken out, the cell culture medium was pipetted and washed once with 50 μL of PBS. Then 20 μL of 1640 medium free of phenol red and serum was added per well, and 2× of compound was added with Tecan, with 1:3 dilution. The compounds were pre-incubated for 1 hour. Afterwards, the reaction was initiated by adding a substrate mixture (50 μL system, 0.5 mM pNP-AMP dissolved in 1640 medium free of phenol red and serum) at a final substrate concentration of 0.25 mM. Absorbance values were read at 405 nm in a microplate reader after 5 hours of reaction, 4-Parameter Logistic Curve model was applied to calculate the […] of the compounds, taking positive compounds as 100% inhibition and DMSO as 0% inhibition.

[1] = test system: MDA-MB-231 CM-THP1 (THP1-Dual Cells NF-κB-SEAP and IRF-Lucia luciferase Reporter Monocytes); assay: Cell Activity Test 2: MDA-MB-231 cells treated with compound and cGAMP, supernatant transferred to THP1-Dual IRF-Lucia luciferase reporter cells; format: cell-based; conditions: 30 minutes pretreatment, cGAMP 24 hours, supernatant on THP1-Dual reporter cells 24 hours, QUANTI-Luc
Description: THP1-Dual Cells NF-κB-SEAP and IRF-Lucia luciferase Reporter Monocytes cells (Invivogen, thpd-nfis), MDA-MB-231 cells (ATCC, CRM-HTB-26), RPMI-1640 medium (Gibco, 11875-093), FBS (Gibco, 10099), penicillin-streptomycin (Gibco, 15070063), HEPES (ThermoFisher, 15630080), L-glutamine (ThermoFisher, 25030081), Normocin-Antimicrobial Reagent (InVivoGen, ant-nr-1), Zeocin (Invivogen, ant-zn-1), Blasticidin (Invivogen, ant-bl-1), Mammalian (non-canonical) CDN, cyclic [G(2′,5′)pA(3′,5′)p] (referred to as cGAMP hereinafter, Invivogen, tlrl-nacga23-1), QUANTI-Luc (InvivoGen, rep-qlc2), Multimode Plate Reader (PerkinElmer, EnVision 2105 Alpha 680 nm Laser), and conventional cell culture consumables (NEST). […]
An appropriate amount of MDA-MB-231 cells in logarithmic growth phase was taken and centrifuged at 300×g for 5 minutes, and the supernatant was removed. The cells were re-suspended with MDA-MB-231 cell growth medium and counted, and the cell density was adjusted to 6×10^4 cells/mL. […]
After 24 hours, the resulting was centrifuged at 300×g for 5 minutes, 10 μL of cell supernatant was transferred to a new 384-well plate with a white opaque bottom, followed by the addition of 25 μL of QUANTI-Luc reaction solution to each well. They were shaken well for 1 minute away from light and the plate was read immediately.

human ENPP1 = biological target: T1, human ENPP1 (Homo sapiens, UniProt P22413); assay: In vitro enzyme activity assay: human ENPP1 enzymatic assay (cGAMP), AMP-Glo; format: biochemical; conditions: substrate cGAMP, AMP-Glo detection
T1 construct: purchased Biovendor AP-18-081; host or cells: HEK293
T1 sequence (P22413 1-925): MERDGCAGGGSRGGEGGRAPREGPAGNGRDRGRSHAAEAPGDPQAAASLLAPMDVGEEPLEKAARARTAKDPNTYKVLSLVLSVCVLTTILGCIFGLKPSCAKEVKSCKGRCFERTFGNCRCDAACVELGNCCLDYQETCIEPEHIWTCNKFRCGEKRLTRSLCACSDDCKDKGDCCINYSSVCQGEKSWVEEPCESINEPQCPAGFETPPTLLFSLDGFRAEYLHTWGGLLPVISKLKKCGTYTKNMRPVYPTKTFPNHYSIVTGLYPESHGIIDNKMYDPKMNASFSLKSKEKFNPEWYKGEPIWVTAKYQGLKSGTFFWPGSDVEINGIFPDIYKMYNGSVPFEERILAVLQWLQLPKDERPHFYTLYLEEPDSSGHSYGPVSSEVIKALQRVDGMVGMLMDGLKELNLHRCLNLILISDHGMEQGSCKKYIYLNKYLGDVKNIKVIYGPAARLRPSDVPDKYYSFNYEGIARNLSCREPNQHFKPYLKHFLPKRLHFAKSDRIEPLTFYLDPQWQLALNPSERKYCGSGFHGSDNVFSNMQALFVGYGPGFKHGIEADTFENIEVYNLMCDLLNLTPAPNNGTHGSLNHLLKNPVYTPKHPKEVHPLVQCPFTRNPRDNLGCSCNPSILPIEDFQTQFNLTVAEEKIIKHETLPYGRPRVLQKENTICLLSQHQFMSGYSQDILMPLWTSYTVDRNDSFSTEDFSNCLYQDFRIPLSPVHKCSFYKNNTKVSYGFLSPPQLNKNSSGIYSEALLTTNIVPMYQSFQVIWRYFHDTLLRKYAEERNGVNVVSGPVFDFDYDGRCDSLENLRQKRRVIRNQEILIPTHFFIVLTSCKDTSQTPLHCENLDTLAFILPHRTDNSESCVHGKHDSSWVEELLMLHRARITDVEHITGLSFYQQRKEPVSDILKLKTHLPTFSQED
Protocol: AMP-Glo Assay Kit (PROMEGA, V5012), ENPP-1-IN-1 (MCE, HY-129490), white opaque 384-well plate (Perkin Elmer, 6008289), Mammalian (non-canonical) CDN, cyclic[g(2′,5′)pA(3′,5′)p](referred to as cGAMP hereinafter, Invivogen, tlrl-nacga23-5), ENPP1 Protein Human HEK293 (Biovendor, AP-18-081).
• 1) Preparing 1× reaction buffer (Tris buffer), 1× enzyme buffer, and 1× substrate buffer; • 2) diluting the compounds using Echo550 and supplementing with DMSO; • 3) pre-loading 2.5 μL of enzyme solution on a reaction plate (adding 2.5 μL of buffer instead as negative control) and incubating it at room temperature; • 4) adding 2.5 μL of substrate solution to the system and incubating it at room temperature; • 5) adding 5 μL of AMP-Glo solution that has been allowed to cooled down to room temperature, centrifuging and reacting at room temperature, • 6) adding 10 μL of AMP Detection solution at room temperature, centrifuging and reacting at room temperature; and • 7) reading the plate using EnVision.

For `COc1ccc2c(ncc3[nH]c(=O)n(Cc4ccc(P(=O)(O)O)c(F)c4)c32)n1` [Control Compound, reference compound], the IC50 (MDA-MB-231 cells) was 9.78 nM and the EC50 [1] was 14.6 nM.

With `O=c1[nH]c2cnc3c4c(ccc3c2n1Cc1ccc(P(=O)(O)O)c(F)c1)OCO4` [Compound 1, (2-fluoro-4-((7-oxo-6,7-dihydro-8H-[1,3]dioxolo[4,5-h]imidazo[4,5-c]quinolin-8-yl)methyl)phenyl)phosphonic add] the IC50 (human ENPP1) was under 10 nM, the IC50 (MDA-MB-231 cells) was 1.12 nM and the EC50 [1] was 3.5 nM.

Work on `Cc1cc(P(=O)(O)O)c(F)cc1Cn1c(=O)[nH]c2cnc3c4c(ccc3c21)OCO4` [Compound 14] yielded an IC50 (human ENPP1) of under 10 nM.

`O=c1n(CCCOC2CCOCC2)c2cnc3c4c(ccc3c2n1Cc1ccc(P(=O)(O)O)c(F)c1)OCO4` [Compound 29] showed an IC50 (human ENPP1) of under 10 nM.

Compound `O=c1[nH]c2cnc3c4c(ccc3c2n1Cc1c(F)cc(P(=O)(O)O)c(F)c1F)OCO4` [Compound 12] has an IC50 (human ENPP1) of under 10 nM.

For `O=c1[nH]c2cnc3c4c(ccc3c2n1Cc1ccc(P(=O)(O)O)c(F)c1F)OCO4` [Compound 9], the IC50 (human ENPP1) was under 10 nM.

For `CC(C)CCn1c(=O)n(Cc2ccc(P(=O)(O)O)c(F)c2)c2c3ccc4c(c3ncc21)OCO4` [Compound 30], the IC50 (human ENPP1) was under 10 nM.
